The source of these data is DBAASP.

Some test systems named below: Escherichia coli UB1005; Escherichia coli K99; Escherichia coli K88; Bacillus megaterium Bm11; Escherichia coli DH10B; Escherichia coli; Escherichia coli TOP 10; Aeromonas salmonicida; Vibrio anguillarum.
What all share (experiment): ≥ marks a high value that may be exact or a test limit, other limits are often not marked, values filed in µg/mL are converted to µM
The test system of test [1] is Salmonella enterica subsp. enterica serovar Pullorum C79-13.
The subject of test [2] is Lacticaseibacillus rhamnosus 1.0385.
The test system of test [3] is Salmonella enterica subsp. enterica serovar Typhimurium ATCC 14028.
In test [4] the test system is Lacticaseibacillus rhamnosus 1.0911.
Test [5] concerns Staphylococcus aureus ATCC 43300.
Test [6] deals with Lacticaseibacillus rhamnosus 1.0936.
Test [7] has as its system Salmonella enterica subsp. enterica serovar Typhimurium C77-31.
For test [8], the system named is Lactiplantibacillus plantarum 8014.
For test [9], the system named is Escherichia coli ATCC 25922.
Test [10] concerns Lacticaseibacillus rhamnosus 7469.
Test [11] deals with Pseudomonas aeruginosa ATCC 27853.
Test [12] deals with Staphylococcus aureus ATCC 29213.
Test [13] concerns Staphylococcus aureus ATCC 25923.
Test [14] has as its system Acinetobacter baumannii ATCC 19606.
For test [15], the system named is Staphylococcus aureus ATCC 12600.
The test system of test [16] is Klebsiella pneumoniae ATCC BAA-2814.
Test [17] deals with Klebsiella pneumoniae ATCC 49472.
The test system of test [18] is Enterococcus faecalis ATCC 51299.
The subject of test [19] is Staphylococcus aureus ATCC BAA-2312.
Test [20] concerns Enterococcus faecium ATCC 19434.
Test [21] relates to Escherichia coli ATCC 35218.
For test [22], the system named is Candida parapsilosis ATCC 22019.
Test [23] concerns Staphylococcus epidermidis ATCC 12228.
The subject of test [24] is Saccharomyces cerevisiae BY4741.
The subject of test [25] is Staphylococcus aureus ATCC BAA-1683.
Test [26] relates to Staphylococcus epidermidis C621.
Test [27] has as its system Pseudomonas aeruginosa K799.
Test [28] has as its system Salmonella enterica serovar typhimurium MS7953s.
The subject of test [29] is Pseudomonas aeruginosa Z61.
Test [30] concerns Salmonella enterica subsp. enterica serovar Typhimurium ATCC 14028s.

In brackets after ≈: the same amount, converted by molar mass. Bounds are passed on as bounds.

Regarding `C[C@@H]1NC(=O)[C@@H](N)CSSC[C@@H](C(=O)O)NC(=O)[C@H](Cc2ccccc2)NC(=O)[C@H](Cc2ccc(O)cc2)NC(=O)[C@H](CO)NC1=O` [CASYFC], the MIC (as a rule, the smallest concentration in the dilution series that meets the test's criterion for growth inhibition) in test [1] was ≥ 64 µM; in test [2] it was ≥ 64 µM; in test [3] it was > 64 µM; against Escherichia coli UB1005 it was ≥ 64 µM; in test [4] it was ≥ 64 µM; in test [5], > 64 µM. The MIC was ≥ 64 µM in test [6]; ≥ 64 µM in [7]; ≥ 64 µM in test [8]; > 64 µM in test [9]; ≥ 64 µM in [10]; > 64 µM in test [11]. Besides, the MIC in test [12] is > 64 µM; in test [13], > 64 µM; against Escherichia coli K99, ≥ 64 µM; against Escherichia coli K88, ≥ 64 µM.
Consider `CC[C@H](C)[C@H](NC(=O)CN)C(=O)N[C@@H](Cc1ccccc1)C(=O)N[C@@H](CC(=O)O)C(=O)N[C@H](C(=O)N[C@@H](CC(C)C)C(=O)N[C@@H](CCCCN)C(=O)N[C@@H](CC(N)=O)C(=O)N[C@@H](CC(C)C)C(=O)N[C@@H](C)C(=O)N[C@@H](CCCCN)C(=O)NCC(=O)N[C@H](C(=O)N[C@H](C(=O)N[C@H](C(=O)N[C@@H](CO)C(=O)N[C@@H](CC(C)C)C(=O)N[C@@H](C)C(=O)N[C@@H](CO)C(N)=O)[C@@H](C)O)[C@@H](C)CC)C(C)C)C(C)C` [GIFDVLKNLAKGVITSLAS], for which the MIC in test [14] is 6.25 µM (≈ 12.2 µg/mL); in test [3] it was 62.5 µM (≈ 122 µg/mL); in test [15], 31.2 µM (≈ 60.8 µg/mL); in [16], ≥ 62.5 µM; in [17] it was ≥ 62.5 µM; in [18], ≥ 250 µM. In addition, the MIC in test [9] was 6.25 µM (≈ 12.2 µg/mL); in test [19] it was 31.2 µM (≈ 60.8 µg/mL); in test [20] it was ≥ 62.5 µM; in test [21], 31.2 µM (≈ 60.8 µg/mL); in test [11] it was 62.5 µM (≈ 122 µg/mL); in test [13], 12.5 µM (≈ 24.3 µg/mL). Besides, the MIC in test [22] came to 25 µM (≈ 48.6 µg/mL); with Bacillus megaterium Bm11 it was 0.78 µM (≈ 1.52 µg/mL); in [23], 6.25 µM (≈ 12.2 µg/mL).
Consider `CSCC[C@H](NC(=O)[C@@H]1CCCN1C(=O)[C@H](CCC(N)=O)NC(=O)CNC(=O)[C@@H]1CCCN1C(=O)[C@H](CCCCN)NC(=O)[C@H](CC(C)C)NC(=O)[C@H](CCC(N)=O)NC(=O)[C@H](CC(C)C)NC(=O)[C@H](Cc1c[nH]c2ccccc12)NC(=O)[C@H](Cc1cnc[nH]1)NC(=O)[C@H](Cc1c[nH]c2ccccc12)NC(=O)[C@H](Cc1ccccc1)NC(=O)[C@H](CCCN=C(N)N)NC(=O)[C@H](CC(N)=O)NC(=O)[C@H](CC(C)C)NC(=O)[C@H](Cc1ccccc1)NC(=O)[C@@H](N)CCCCN)C(=O)N[C@@H](Cc1ccc(O)cc1)C(=O)O` [KFLNRFWHWLQLKPGQPMY], for which the MIC stood at 20 µM (≈ 49.8 µg/mL) against Escherichia coli DH10B and 10 µM (≈ 24.9 µg/mL) in test [24].
`CC(C)C[C@H](NC(=O)[C@H](CC(C)C)NC(=O)[C@H](CCCN=C(N)N)NC(=O)[C@H](Cc1c[nH]c2ccccc12)NC(=O)[C@H](Cc1c[nH]c2ccccc12)NC(=O)[C@@H](N)CCCCN)C(=O)N[C@@H](Cc1cnc[nH]1)C(=O)N[C@@H](CCCCN)C(=O)N[C@@H](CCCCN)C(=O)N[C@@H](CCC(N)=O)C(N)=O` [KWWRLLHKKQ]: the results for the MIC (in test [13]; in test [25]; against Escherichia coli) were 351 µM (≈ 500 µg/mL), ≥ 351 µM and 351 µM (≈ 500 µg/mL), respectively.
Turning to `CC[C@H](C)[C@H](NC(=O)[C@H](CCC(=O)O)NC(=O)[C@H](CCCCN)NC(=O)[C@H](CCC(=O)O)NC(=O)[C@@H](NC(=O)[C@H](CO)NC(=O)[C@H](CCC(N)=O)NC(=O)[C@@H](NC(=O)[C@@H]1CCCN1C(=O)[C@H](CC(=O)O)NC(=O)[C@H](C)NC(=O)[C@H](CCSC)NC(=O)[C@@H](NC(=O)[C@H](Cc1ccccc1)NC(=O)[C@@H](N)CC(C)C)[C@@H](C)O)[C@@H](C)CC)[C@@H](C)CC)C(N)=O` [LFTMADPIQSIEKEI], the MIC in the test with Escherichia coli TOP 10 is ≥ 57.6 µM.
With `CC[C@H](C)[C@H](NC(=O)[C@@H](N)CO)C(=O)NCC(=O)N[C@@H](CO)C(=O)N[C@@H](C)C(=O)N[C@@H](Cc1ccccc1)C(=O)N[C@@H](CCCCN)C(=O)N[C@@H](CCCCN)C(=O)N[C@@H](C)C(=O)N[C@@H](C)C(=O)N[C@@H](Cc1cnc[nH]1)C(=O)N[C@H](C(=O)NCC(=O)N[C@@H](CCCCN)C(=O)N[C@@H](Cc1cnc[nH]1)C(=O)N[C@H](C(=O)NCC(=O)N[C@@H](CCCCN)C(=O)N[C@@H](C)C(=O)N[C@@H](C)C(=O)N[C@@H](CC(C)C)C(=O)NCC(=O)N[C@@H](C)C(=O)N[C@@H](C)C(=O)N[C@@H](C)C(=O)N[C@@H](CCCN=C(N)N)C(=O)N[C@@H](CCCN=C(N)N)C(=O)N[C@@H](CCCN=C(N)N)C(=O)N[C@@H](CCCCN)C(=O)O)C(C)C)C(C)C` [SIGSAFKKAAHVGKHVGKAALGAAARRRK], the MIC in [26] stood at 21.7 µM (≈ 64 µg/mL); in test [27], 21.7 µM (≈ 64 µg/mL); with Aeromonas salmonicida, 10.9 µM (≈ 32 µg/mL); in [28], 2.72 µM (≈ 8 µg/mL); in the test with Vibrio anguillarum, 21.7 µM (≈ 64 µg/mL); in test [29] it was 21.7 µM (≈ 64 µg/mL). In test [30], this compound returned an MIC of 21.7 µM (≈ 64 µg/mL).
